Some results are limits rather than exact numbers.

The target in the test is T1, SIRT1 (Homo sapiens, UniProt Q96EB6).
T1 sequence (Q96EB6 1-747): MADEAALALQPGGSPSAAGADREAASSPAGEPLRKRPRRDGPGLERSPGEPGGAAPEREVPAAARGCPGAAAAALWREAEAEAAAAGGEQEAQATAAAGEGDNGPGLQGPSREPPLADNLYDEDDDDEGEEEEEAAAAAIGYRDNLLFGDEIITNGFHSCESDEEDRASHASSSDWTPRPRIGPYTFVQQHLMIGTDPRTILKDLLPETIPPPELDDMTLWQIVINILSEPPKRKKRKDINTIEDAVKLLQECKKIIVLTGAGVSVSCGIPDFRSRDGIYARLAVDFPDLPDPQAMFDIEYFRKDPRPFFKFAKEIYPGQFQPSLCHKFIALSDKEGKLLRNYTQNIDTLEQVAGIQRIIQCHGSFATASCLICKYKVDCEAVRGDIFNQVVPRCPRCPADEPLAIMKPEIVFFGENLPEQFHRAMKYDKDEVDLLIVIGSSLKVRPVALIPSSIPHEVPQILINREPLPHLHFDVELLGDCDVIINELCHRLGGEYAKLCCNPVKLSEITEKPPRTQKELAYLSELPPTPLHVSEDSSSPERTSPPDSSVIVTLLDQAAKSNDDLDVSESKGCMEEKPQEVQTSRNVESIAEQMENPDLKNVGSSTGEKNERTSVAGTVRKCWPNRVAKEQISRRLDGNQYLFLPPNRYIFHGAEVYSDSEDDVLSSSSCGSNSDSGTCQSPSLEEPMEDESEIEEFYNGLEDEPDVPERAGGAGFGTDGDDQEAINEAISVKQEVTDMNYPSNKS
The test can be described thus: Mass spectrometry based assay of SIRT1 activity (deacetylation of a p53-based acetylated peptide). In kind it is biochemical. The following applies: 10 nM SIRT1, 0.5 μM peptide substrate, 120 μM βNAD+, 25 minutes at 25° C.; for Emax: read-out: % FOLD ACT. (percent maximum fold activation). The text has this: A mass spectrometry based assay was used to identify modulators of SIRT1 activity. The mass spectrometry based assay utilizes a peptide having 20 amino acid residues as follows: Ac-EE-K(biotin)-GQSTSSHSK(Ac)NleSTEG-K(5TMR)-EE-NH2 (SEQ ID NO: 1) wherein K(Ac) is an acetylated lysine residue and Nle is a norleucine. The peptide is labeled with the fluorophore 5TMR (excitation 540 nm/emission 580 nm) at the C-terminus. The sequence of the peptide substrate is based on p53 with several modifications. In addition, the methionine residue naturally present in the sequence was replaced with the norleucine because the methionine may be susceptible to oxidation during synthesis and purification.
The mass spectrometry assay is conducted as follows: 0.5 μM peptide substrate and 120 μM βNAD^+ is incubated with 10 nM SIRT1 for 25 minutes at 25° C. in a reaction buffer (50 mM Tris-acetate pH 8, 137 mM NaCl, 2.7 mM KCl, 1 mM MgCl2, 5 mM DTT, 0.05% BSA). Test compounds may be added to the reaction as described above. […] After the 25 minute incubation with SIRT1, 10 μL of 10% formic acid is added to stop the reaction. Reactions are sealed and frozen for later mass spec analysis. Determination of the mass of the substrate peptide allows for precise determination of the degree of acetylation (i.e. starting material) as compared to deacetylated peptide (product).
A control for inhibition of sirtuin activity is conducted by adding 1 μL of 500 mM nicotinamide as a negative control at the start of the reaction (e.g., permits determination of maximum sirtuin inhibition). A control for activation of sirtuin activity is conducted using 10 nM of sirtuin protein, with 1 μL of DMSO in place of compound, to determine the amount of deacetylation of the substrate at a given timepoint within the linear range of the assay. This timepoint is the same as that used for test compounds and, within the linear range, the endpoint represents a change in velocity.
For the above assay, SIRT1 protein was expressed and purified as follows. […] The protein was expressed by induction with 1 mM IPTG as an N-terminal His-tag fusion protein at 18° C. overnight and harvested at 30,000×g. Cells were lysed with lysozyme in lysis buffer (50 mM Tris-HCl, 2 mM Tris[2-carboxyethyl]phosphine (TCEP), 10 μM ZnCl2, 200 mM NaCl) and further treated with sonication for 10 min for complete lysis. The protein was purified over a Ni-NTA column (Amersham) and fractions containing pure protein were pooled, concentrated and run over a sizing column (Sephadex S200 26/60 global). The peak containing soluble protein was collected and run on an Ion-exchange column (MonoQ). Gradient elution (200 mM-500 mM NaCl) yielded pure protein. This protein was concentrated and dialyzed against dialysis buffer (20 mM Tris-HCl, 2 mM TCEP) overnight. The protein was aliquoted and frozen at −80° C. until further use.
Sirtuin modulating compounds that activated SIRT1 were identified using the assay described above and are shown below in Table 1 for compounds of Formula (III)). The EC1.5 values represent the concentration of test compounds that result in 150% activation of SIRT1. The EC1.5 values for the activating compounds in Table 1 are represented by A (EC1.5<10.0 μM), B (EC1.5 10-25 μM), C (EC1.5>25 μM). The percent maximum fold activation is represented by A (Fold activation>200%) or B (Fold Activation<200%); “NT” means not tested; “ND” mean not determinable.

Take `Cc1nc(NC(=O)C2CCCc3ccc(-c4cccc(C(F)(F)F)c4)nc32)sc1C` (centres unmarked) [Compound 281]: the “EC1.5 (concentration of test compound that results in 150% activation of SIRT1)” value is “C (EC1.5>25 μM)”. Take `Cc1cc(C(=O)NC2CCCc3ccc(-c4cccc(C(F)(F)F)c4)nc32)n(C)n1` (centres unmarked) [Compound 227]: the “EC1.5 (concentration of test compound that results in 150% activation of SIRT1)” value is on record as “A (EC1.5<10.0 μM)” and the Emax was over 200%. Take `CC(NC(=O)c1cccc(CN2CCCC2)n1)c1cccc(-c2cccnc2)n1` (centres unmarked) [Compound 220]: the “EC1.5 (concentration of test compound that results in 150% activation of SIRT1)” value is “C (EC1.5>25 μM)”. For the compound `CC(C)c1cccc(-c2cccc(C(C)NC(=O)c3cnccn3)n2)c1` (centres unmarked) [Compound 202], the “EC1.5 (concentration of test compound that results in 150% activation of SIRT1)” value is “C (EC1.5>25 μM)” and the Emax was under 200%. In the same order, the values of `CC(NC(=O)c1cnccn1)c1cccc(-c2cccc(OC(F)(F)F)c2)n1` (centres unmarked) [Compound 207] are “B (EC1.5 10-25 μM)” and over 200%. With `O=C(NC1CCCc2ccc(-c3cccc(C(F)(F)F)c3)nc21)c1cccc(C2CCNC2)c1` (centres unmarked) [Compound 242], the “EC1.5 (concentration of test compound that results in 150% activation of SIRT1)” value was “A (EC1.5<10.0 μM)” and the Emax is over 200%. In the same order, the values of `O=C(NC1CCCc2ccc(-c3cccc(C(F)(F)F)c3)nc21)c1ccccn1` (centres unmarked) [Compound 231] are “A (EC1.5<10.0 μM)” and over 200%. On to `CS(=O)(=O)c1cccc(-c2ccc3c(n2)C(NC(=O)c2cnccn2)CCC3)c1` (centres unmarked) [Compound 250], for which the “EC1.5 (concentration of test compound that results in 150% activation of SIRT1)” value is on record as “C (EC1.5>25 μM)”. Same read-out and setting: the entry for `O=C(Nc1ccncn1)C1CCOc2ccc(-c3cccc(C(F)(F)F)c3)nc21` (centres unmarked) [Compound 303] is “C (EC1.5>25 μM)”. Still for that read-out and setting: the entry for `O=C(Nc1ncc(CN2CCCC2)s1)C1CCCc2ccc(-c3cccc(C(F)(F)F)c3)nc21` (centres unmarked) [Compound 296] is “C (EC1.5>25 μM)”. `CC(NC(=O)c1cnccn1)c1cccc(-c2ccccc2)n1` (centres unmarked) [Compound 211]: the “EC1.5 (concentration of test compound that results in 150% activation of SIRT1)” value was “C (EC1.5>25 μM)”. On to `O=C(NC1CCCc2ccc(-c3cccc(C(F)(F)F)c3)nc21)c1ccnc(CN2CCOCC2)c1` (centres unmarked) [Compound 238], for which the “EC1.5 (concentration of test compound that results in 150% activation of SIRT1)” value is listed as “C (EC1.5>25 μM)”.

In the case of `O=C(NC1CCCc2ccc(-c3cccc(C(F)(F)F)c3)nc21)c1cncnc1` (centres unmarked) [Compound 233], the “EC1.5 (concentration of test compound that results in 150% activation of SIRT1)” value is given as “C (EC1.5>25 μM)”. The same measure, in the same setting: the entry for `O=C(Nc1cccc(N2CCOCC2)n1)C1CCOc2ccc(-c3cccc(C(F)(F)F)c3)nc21` (centres unmarked) [Compound 302, N-(6-morpholinopyridin-2-yl)-6-(3-(trifluoromethyl)phenyl)-3,4-dihydro-2H-pyrano[3,2-b]pyridine-4-carboxamide] is “C (EC1.5>25 μM)”; for `CC(NC(=O)c1cccnc1)c1cccc(-c2cccc(C(F)(F)F)c2)n1` (centres unmarked) [Compound 216] it is “C (EC1.5>25 μM)”. On to `CC(NC(=O)c1cccnc1)c1cccc(-c2cccc(OC(F)(F)F)c2)n1` (centres unmarked) [Compound 218], for which the “EC1.5 (concentration of test compound that results in 150% activation of SIRT1)” value is recorded as “C (EC1.5>25 μM)”. For `CC(C)c1ccccc1-c1ccc2c(n1)C(NC(=O)c1cnccn1)CCC2` (centres unmarked) [Compound 258], the “EC1.5 (concentration of test compound that results in 150% activation of SIRT1)” value is “C (EC1.5>25 μM)”. Consider `Cc1cc(NC(=O)C2CCCc3ccc(-c4cccc(C(F)(F)F)c4)nc32)sn1` (centres unmarked) [Compound 282], for which the “EC1.5 (concentration of test compound that results in 150% activation of SIRT1)” value is listed as “B (EC1.5 10-25 μM)” and the Emax was under 200%. On to `O=C(NC1CCCc2ccc(-c3cccc(N4CCOCC4)c3)nc21)c1cnccn1` (centres unmarked) [Compound 261], for which the “EC1.5 (concentration of test compound that results in 150% activation of SIRT1)” value is recorded as “C (EC1.5>25 μM)”. Take `O=C(NC1CCCc2ccc(-c3cccnc3O)nc21)c1cnccn1` (centres unmarked) [Compound 257]: the “EC1.5 (concentration of test compound that results in 150% activation of SIRT1)” value is reported as “C (EC1.5>25 μM)”. As for `CC(C(=O)Nc1nccs1)c1cccc(-c2cccc(C(F)(F)F)c2)n1` (centres unmarked) [Compound 221], the “EC1.5 (concentration of test compound that results in 150% activation of SIRT1)” value is given as “C (EC1.5>25 μM)”.

With `O=C(NC1CCCc2ccc(-c3ccc(N4CCCC4)cc3)nc21)c1cnccn1` (centres unmarked) [Compound 259], the “EC1.5 (concentration of test compound that results in 150% activation of SIRT1)” value is listed as “C (EC1.5>25 μM)”. With `CC(NC(=O)c1cnccn1)c1cccc(-c2cccc(C(F)(F)F)c2)n1` (centres unmarked) [Compound 204, N-(1-(6-(3-(trifluoromethyl)phenyl)pyridin-2-yl)ethyl)pyrazine-2-carboxamide], the “EC1.5 (concentration of test compound that results in 150% activation of SIRT1)” value is given as “B (EC1.5 10-25 μM)” and the Emax was over 200%.

With `Cc1ccnc(NC(=O)C2CCCc3ccc(-c4cccc(C(F)(F)F)c4)nc32)n1` (centres unmarked) [Compound 292], the “EC1.5 (concentration of test compound that results in 150% activation of SIRT1)” value is “C (EC1.5>25 μM)”. Turning to `O=C(NC1CCCc2ccc(-c3cccc(C(F)(F)F)c3)nc21)c1ccno1` (centres unmarked) [Compound 230], the “EC1.5 (concentration of test compound that results in 150% activation of SIRT1)” value is “C (EC1.5>25 μM)”.

With `CC(C)c1cccc(-c2cccc(C(C)NC(=O)c3cscn3)n2)c1` (centres unmarked) [Compound 201], the “EC1.5 (concentration of test compound that results in 150% activation of SIRT1)” value is “C (EC1.5>25 μM)” and the Emax was under 200%. Turning to `O=C(NC1CCCc2ccc(-c3cccc(C(F)(F)F)c3)nc21)c1ccc(CN2CCOCC2)nc1` (centres unmarked) [Compound 241], the “EC1.5 (concentration of test compound that results in 150% activation of SIRT1)” value is recorded as “C (EC1.5>25 μM)”.

Take `O=C(Nc1cnccn1)C1CCCc2ccc(-c3cccc(C(F)(F)F)c3)nc21` (centres unmarked) [Compound 289]: the “EC1.5 (concentration of test compound that results in 150% activation of SIRT1)” value is listed as “B (EC1.5 10-25 μM)” and the Emax was under 200%.

Take `O=C(Nc1nc(CN2CCOCC2)cs1)C1CCCc2ccc(-c3cccc(C(F)(F)F)c3)nc21` (centres unmarked) [Compound 294]: the “EC1.5 (concentration of test compound that results in 150% activation of SIRT1)” value was “A (EC1.5<10.0 μM)” and the Emax is over 200%.

Turning to `O=C(NC1CCCc2ccc(-c3cccc(C(F)(F)F)c3)nc21)c1cscn1` (centres unmarked) [Compound 205], the “EC1.5 (concentration of test compound that results in 150% activation of SIRT1)” value is “C (EC1.5>25 μM)” and the Emax was under 200%.

Turning to `O=C(NC1CCCc2ccc(-c3cccc(C(F)(F)F)c3)nc21)c1cccc(CN2CCCC2)c1` (centres unmarked) [Compound 237], the “EC1.5 (concentration of test compound that results in 150% activation of SIRT1)” value is listed as “B (EC1.5 10-25 μM)” and the Emax was under 200%. As to `Cc1cc(-c2ccc3c(n2)C(NC(=O)c2cnccn2)CCC3)ccn1` (centres unmarked) [Compound 249], the “EC1.5 (concentration of test compound that results in 150% activation of SIRT1)” value is on record as “C (EC1.5>25 μM)”.

For the origin of these results see patent US20110263564A1, “PYRIDINE, BICYCLIC PYRIDINE AND RELATED ANALOGS AS SIRTUIN MODULATORS” (Sirtris Pharmaceuticals, Inc., priority 2008, published 2011).
